Measurements: patent EP4603105A1, “PHARMACEUTICAL COMPOSITION CONTAINING CYCLIC COMPOUND HAVING SELECTIVE KRAS INHIBITORY EFFECT AGAINST HRAS AND NRAS” (CHUGAI SEIYAKU KABUSHIKI KAISHA, priority 2022, dated 2024)
*1 amine or outer side, *2 acyl side, *3 side chain or, on linkers, in order; H or OH if unused. Where a SMILES comes first, the peptide text is derived from it. Bridges are numbered along the chain shown (N, C = ends). [ ]: non-standard residue; d: D form. The star is where a group is joined. hPhe(3-Cl-4-CF3) = N[C@@H](CCc1ccc(C(F)(F)F)c(Cl)c1)C(=O)O; NPrPhe(4-CF3) = CCCN[C@@H](Cc1ccc(C(F)(F)F)cc1)C(=O)O; X45 = CCCN([C@@H](CC1CCC(F)(F)CC1)C(=O)[*:2])[*:1]; NMeGly(cPent) = CN[C@H](C(=O)O)C1CCCC1; Pro(4,4-F2) = O=C(O)[C@@H]1CC(F)(F)CN1; NMeD = CN[C@@H](CC(=O)O)C(=O)O; NMeL = CN[C@@H](CC(C)C)C(=O)O; NMeS = CN[C@@H](CO)C(=O)O; Morpholide = C1CN(*)CCO1; NMeA = CN[C@@H](C)C(=O)O; Ac5c = NC1(C(=O)O)CCCC1; Aze = O=C(O)[C@@H]1CCN1; Sar = CNCC(=O)O

What was measured:
[1] = target: GDP-bound NRAS wild-type protein (Homo sapiens, UniProt P01111); test: Binding to NRAS by surface plasmon resonance (SPR), KD and KD ratio to KRAS
How it was run: (§1)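 Biotinylated GDP-bound RAS was captured at about 100–300 RU. Running buffer: HBS pH 7.4, 10 mM MgCl2, 10 µM GDP, 1 mM DTT, 0.01% Tween 20, 4% DMSO.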

HRAS wild-type protein = HRAS wild-type protein (Homo sapiens, UniProt P01112); test: Binding to HRAS by surface plasmon resonance (SPR), KD and KD ratio to KRAS
How it was run: as §1

[2] = tested on: human lung cancer strain NCI-H441; format: cell-based
How it was run: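 Step one: dispense the test compound in serial DMSO dilutions. Step three: add the reagent and measure […].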

[3] = ratio of KD for GDP-bound NRAS wild-type protein to KD for KRAS
[4] = ratio of KD for HRAS wild-type protein to KD for KRAS
[5] = ratio of the KD value with respect to GDP-bound NRAS wild-type protein to the KD value with respect to KRAS
[6] = ratio of the KD value with respect to HRAS wild-type protein to the KD value with respect to KRAS

GDP-bound NRAS wild-type protein, sequence (P01111 whole entry): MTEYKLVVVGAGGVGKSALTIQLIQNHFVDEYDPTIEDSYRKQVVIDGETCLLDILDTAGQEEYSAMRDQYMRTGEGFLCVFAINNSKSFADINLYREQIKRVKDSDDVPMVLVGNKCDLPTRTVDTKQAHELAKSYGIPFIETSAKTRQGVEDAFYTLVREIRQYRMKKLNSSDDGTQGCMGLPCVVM
HRAS wild-type protein, sequence (P01112 whole entry): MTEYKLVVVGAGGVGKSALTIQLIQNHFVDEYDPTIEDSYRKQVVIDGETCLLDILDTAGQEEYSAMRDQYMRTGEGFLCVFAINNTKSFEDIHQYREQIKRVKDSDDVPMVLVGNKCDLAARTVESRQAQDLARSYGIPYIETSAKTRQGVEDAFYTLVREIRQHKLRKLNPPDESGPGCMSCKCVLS

Compound | NRAS /KRAS [1, 3] | HRAS /KRAS (HRAS wild-type protein; [4]) | IC50 [2] | NRAS /KRAS [1, 5] | HRAS /KRAS (HRAS wild-type protein; [6]) | NRAS /KRAS ([1]; ratio of KD value for GDP-bound NRAS wild-type protein to KD value for KRAS (SPR)) | HRAS /KRAS (HRAS wild-type protein; ratio of KD value for HRAS wild-type protein to KD value for KRAS (SPR))
CCO[C@@H]1C[C@H]2C(=O)NC3(CCC3)C(=O)N(C)[C@@H](C3CCCC3)C(=O)N(C)[C@H](C(=O)N3CCOCC3)CC(=O)N(C)[C@@H](CC(C)C)C(=O)N[C@@H]([C@@H](C)CC)C(=O)N(C)CC(=O)N(C)[C@H]3C[C@@H](C)CCN(C3=O)[C@@H](Cc3ccc(C(F)(F)F)cc3)C(=O)N(C)CC(=O)N[C@@H](CCc3cc(F)c(C(F)(F)F)c(F)c3)C(=O)N2C1 [PP1025] | C (A compound having a KD ratio of 0.1 or more and less than 3 is denoted as C) | B (a compound having 3 or more and less than 10 is denoted as B) | 10.7 nM | – | – | – | –
CCCN1C(=O)CN(C)C(=O)CN(C)C(=O)[C@H]([C@@H](C)CC)NC(=O)[C@H](CC(C)C)N(C)C(=O)C[C@@H](C(=O)N2CCOCC2)N(C)C(=O)[C@H](C2CCCC2)N(C)C(=O)C2(CCCC2)NC(=O)[C@H](COC)N(C)C(=O)[C@H](CCc2ccc(C(F)(F)F)c(Cl)c2)NC(=O)CN(C)C(=O)[C@@H]1Cc1ccc(C(F)(F)F)cc1 [PP1920] ([NMeL]I[Sar][Sar][NPrPhe(4-CF3)][Sar][hPhe(3-Cl-4-CF3)][NMeS](Me)[Ac5c][NMeGly(cPent)][NMeD]-Morpholide; lactam N-11) | – | – | 32.4 nM | B (a compound having 3 or more and less than 10 is denoted as B) | C (A compound having a KD ratio of 0.1 or more and less than 3 is denoted as C) | – | –
CC[C@H](C)[C@@H]1NC(=O)[C@H](CC(C)C)N(C)C(=O)C[C@@H](C(=O)N2CCOCC2)N(C)C(=O)[C@H](C2CCCC2)N(C)C(=O)C2(CCC2)NC(=O)[C@@H]2CC(F)(F)CN2C(=O)[C@H](CCc2cc(F)c(C(F)(F)F)c(F)c2)NC(=O)CN(C)C(=O)[C@H](Cc2ccc(C(F)(F)F)cc2)N2CCCC[C@@H](C2=O)N(C)C(=O)CN(C)C1=O [PP0575] | – | – | 3.2 nM | B (a compound having 3 or more and less than 10 is denoted as B) | B (a compound having 3 or more and less than 10 is denoted as B) | – | –
CCO[C@@H]1C[C@H]2C(=O)NC3(CC(C)(C)C3)C(=O)N(C)[C@@H](C(CC)CC)C(=O)N(C)[C@H](CC)CC(=O)N(C)[C@@H](CC3CC3)C(=O)N[C@@H]([C@@H](C)CC)C(=O)N(C)CC(=O)N(C)[C@H]3C/C=C\CCN(C3=O)[C@@H](Cc3ccc(C(F)(F)F)cc3)C(=O)N(C)CC(=O)N[C@@H](CCc3cc(F)c(C(F)(F)F)c(F)c3)C(=O)N2C1 [PP1628] | – | – | 150 nM | – | – | A (a compound having 10 or more and less than 20 is denoted as A) | A (a compound having 10 or more and less than 20 is denoted as A)
CCCN1C(=O)[C@@H]2CCN2C(=O)[C@H](C)N(C)C(=O)[C@H]([C@@H](C)CC)NC(=O)[C@H](CC(C)C)N(C)C(=O)C[C@@H](C(=O)N2CCOCC2)N(C)C(=O)[C@H](C2CCCC2)N(C)C(=O)C2(CCCC2)NC(=O)[C@@H]2CCCN2C(=O)[C@H](CCc2ccc(C(F)(F)F)c(Cl)c2)NC(=O)CN(C)C(=O)[C@@H]1CC1CCC(F)(F)CC1 [PP0527] ([NMeL]I[NMeA][Aze][X45][Sar][hPhe(3-Cl-4-CF3)]P[Ac5c][NMeGly(cPent)][NMeD]-Morpholide; lactam N-11) | – | – | 5.7 nM | C (A compound having a KD ratio of 0.1 or more and less than 3 is denoted as C) | C (A compound having a KD ratio of 0.1 or more and less than 3 is denoted as C) | – | –
CCCN1C(=O)CN(C)C(=O)CNC(=O)[C@H]([C@@H](C)CC)NC(=O)[C@H](CC(C)C)N(C)C(=O)C[C@@H](C(=O)N(C)C)N(C)C(=O)[C@H](C2CCCC2)N(C)C(=O)C2(CCCC2)NC(=O)[C@@H]2CC(F)(F)CN2C(=O)[C@H](CCc2ccc(C(F)(F)F)c(Cl)c2)NC(=O)CN(C)C(=O)[C@@H]1Cc1ccc(C(F)(F)F)cc1 [PP0419] ([NMeL]IG[Sar][NPrPhe(4-CF3)][Sar][hPhe(3-Cl-4-CF3)][Pro(4,4-F2)][Ac5c][NMeGly(cPent)][NMeD]-NMe2; lactam N-11) | – | – | 4.2 nM | B (a compound having 3 or more and less than 10 is denoted as B) | C (A compound having a KD ratio of 0.1 or more and less than 3 is denoted as C) | – | –
CC[C@H](C)[C@@H]1NC(=O)[C@@H]2CCC/C=C/c3ccc(cc3)C[C@@H](C(=O)N(C)CC(=O)N[C@@H](CCc3ccc(Cl)c(Cl)c3)C(=O)N3C[C@H](OC4CCC4)C[C@H]3C(=O)NC3(CC(C)(C)C3)C(=O)N(C)[C@@H](C3CCCC3)C(=O)N(C)[C@H](C(=O)N3CCCC3)CC(=O)N2C)N2CC/C=C\C[C@@H](C2=O)N(C)C(=O)CN(C)C1=O [PP3053] | A (a compound having 10 or more and less than 20 is denoted as A) | A (a compound having 10 or more and less than 20 is denoted as A) | 27 nM | – | – | – | –
CCC(CC)[C@H]1C(=O)N(C)[C@H](C(=O)N(C)C)CC(=O)N(C)[C@@H](COC)C(=O)N[C@@H]([C@@H](C)CC)C(=O)N(C)CC(=O)N(C)[C@H]2C/C=C\CCN(C2=O)[C@@H](Cc2ccc(C)cc2)C(=O)N(C)CC(=O)N[C@@H](CCc2ccc(Cl)c(Cl)c2)C(=O)N2C[C@H](OC3CCCC3)C[C@H]2C(=O)N(C)C2(CC(C)(C)C2)C(=O)N1C [PP2818] | A (a compound having 10 or more and less than 20 is denoted as A) | A (a compound having 10 or more and less than 20 is denoted as A) | 77.1 nM | – | – | – | –
CCC[C@H]1C(=O)N[C@@H]([C@@H](C)CC)C(=O)N(C)CC(=O)N(C)[C@H]2C/C=C\CCN(C2=O)[C@@H](Cc2ccc(C(F)(F)F)cc2)C(=O)N(C)CC(=O)N[C@@H](CCc2cc(F)c(C(F)(F)F)c(F)c2)C(=O)N(C)[C@@H](C)C(=O)NC2(CC(C)(C)C2)C(=O)N(C)[C@@H](C2CCCC2)C(=O)N(C)[C@H](C(=O)N(C)C)CC(=O)N1C [PP1934] | – | – | 68.5 nM | A (a compound having 10 or more and less than 20 is denoted as A) | A (a compound having 10 or more and less than 20 is denoted as A) | – | –
C=CCN1CC(=O)N(C)[C@H]2C/C=C\CCN(C2=O)[C@@H](Cc2ccc(C(F)(F)F)cc2)C(=O)N(C)CC(=O)N[C@@H](CCc2ccc(C(F)(F)F)c(OC)c2)C(=O)N2C[C@H](OCC)C[C@H]2C(=O)NC2(CC(C)(C)C2)C(=O)N(C)[C@@H](C2CCCC2)C(=O)N(C)[C@H](C(=O)N(C)C)CC(=O)N(C)[C@@H](CCC)C(=O)N[C@@H]([C@@H](C)CC)C1=O [PP2106] | – | – | 6.1 nM | A (a compound having 10 or more and less than 20 is denoted as A) | A (a compound having 10 or more and less than 20 is denoted as A) | – | –
CC[C@H](C)[C@@H]1NC(=O)[C@H](CC)N(C)C(=O)C[C@@H](C(=O)N(C)C)N(CC)C(=O)[C@H](C2CCCC2)N(C)C(=O)C2(CCC2)NC(=O)[C@@H]2CCCCN2C(=O)[C@H](CCc2cc(F)c(C(F)(F)F)c(F)c2)NC(=O)CN(C)C(=O)[C@H](Cc2ccc(C(F)(F)F)cc2)N2CCCC[C@@H](C2=O)N(C)C(=O)CN(C)C1=O [PP0661] | – | – | 56.6 nM | C (A compound having a KD ratio of 0.1 or more and less than 3 is denoted as C) | B (a compound having 3 or more and less than 10 is denoted as B) | – | –
CCC[C@H]1C(=O)N[C@@H](C2CCCC2)C(=O)N(C)CC(=O)N(C)[C@H]2C/C=C\CCN(C2=O)[C@@H](Cc2ccc(C(F)(F)F)cc2)C(=O)N(C)CC(=O)N[C@@H](CCc2ccc(C(F)(F)F)c(Cl)c2)C(=O)N2CC3(CC3)C[C@H]2C(=O)NC2(CC(C)(C)C2)C(=O)N(C)[C@@H](C2CCCC2)C(=O)N(C)[C@H](C(=O)N(C)C)CC(=O)N1C [PP2986] | AA (a compound having 20 or more is denoted as AA) | A (a compound having 10 or more and less than 20 is denoted as A) | 25.1 nM | – | – | – | –
